{
  "source": "patent US8344028B2",
  "about": "“Gamma-amino-butyric acid derivatives as GABAB receptor ligands” (XenoPort, Inc., priority 2009, dated 2013)",
  "data": [
    {"target": "GABAB receptor (Homo sapiens, UniProt Q9UBS5)", "sequence (Q9UBS5 20-961)": "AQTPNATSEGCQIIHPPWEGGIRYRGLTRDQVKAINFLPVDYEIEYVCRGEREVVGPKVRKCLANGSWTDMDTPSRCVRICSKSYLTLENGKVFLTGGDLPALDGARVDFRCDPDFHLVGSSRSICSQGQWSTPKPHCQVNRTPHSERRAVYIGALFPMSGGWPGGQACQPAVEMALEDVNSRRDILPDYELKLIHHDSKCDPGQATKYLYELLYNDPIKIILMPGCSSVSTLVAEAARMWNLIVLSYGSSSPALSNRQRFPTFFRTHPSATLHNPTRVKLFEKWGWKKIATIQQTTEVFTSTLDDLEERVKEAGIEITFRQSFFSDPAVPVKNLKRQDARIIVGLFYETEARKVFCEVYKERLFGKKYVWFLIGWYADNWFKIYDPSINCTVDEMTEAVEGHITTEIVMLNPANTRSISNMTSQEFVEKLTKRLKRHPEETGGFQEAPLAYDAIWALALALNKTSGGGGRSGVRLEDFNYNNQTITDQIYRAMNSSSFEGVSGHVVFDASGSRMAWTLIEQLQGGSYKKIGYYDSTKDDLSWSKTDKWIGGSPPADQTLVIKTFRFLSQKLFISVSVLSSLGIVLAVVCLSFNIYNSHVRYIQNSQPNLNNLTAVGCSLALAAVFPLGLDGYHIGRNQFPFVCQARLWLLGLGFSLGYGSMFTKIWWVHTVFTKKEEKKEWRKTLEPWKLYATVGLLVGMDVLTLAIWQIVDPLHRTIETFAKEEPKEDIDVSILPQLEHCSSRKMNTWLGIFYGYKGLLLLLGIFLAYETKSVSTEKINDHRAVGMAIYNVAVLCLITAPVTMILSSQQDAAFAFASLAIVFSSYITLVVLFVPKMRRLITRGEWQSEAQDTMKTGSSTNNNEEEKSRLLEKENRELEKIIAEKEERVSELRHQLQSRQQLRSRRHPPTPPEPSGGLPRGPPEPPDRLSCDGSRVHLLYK", "sequence (O75899 42-941 partner)": "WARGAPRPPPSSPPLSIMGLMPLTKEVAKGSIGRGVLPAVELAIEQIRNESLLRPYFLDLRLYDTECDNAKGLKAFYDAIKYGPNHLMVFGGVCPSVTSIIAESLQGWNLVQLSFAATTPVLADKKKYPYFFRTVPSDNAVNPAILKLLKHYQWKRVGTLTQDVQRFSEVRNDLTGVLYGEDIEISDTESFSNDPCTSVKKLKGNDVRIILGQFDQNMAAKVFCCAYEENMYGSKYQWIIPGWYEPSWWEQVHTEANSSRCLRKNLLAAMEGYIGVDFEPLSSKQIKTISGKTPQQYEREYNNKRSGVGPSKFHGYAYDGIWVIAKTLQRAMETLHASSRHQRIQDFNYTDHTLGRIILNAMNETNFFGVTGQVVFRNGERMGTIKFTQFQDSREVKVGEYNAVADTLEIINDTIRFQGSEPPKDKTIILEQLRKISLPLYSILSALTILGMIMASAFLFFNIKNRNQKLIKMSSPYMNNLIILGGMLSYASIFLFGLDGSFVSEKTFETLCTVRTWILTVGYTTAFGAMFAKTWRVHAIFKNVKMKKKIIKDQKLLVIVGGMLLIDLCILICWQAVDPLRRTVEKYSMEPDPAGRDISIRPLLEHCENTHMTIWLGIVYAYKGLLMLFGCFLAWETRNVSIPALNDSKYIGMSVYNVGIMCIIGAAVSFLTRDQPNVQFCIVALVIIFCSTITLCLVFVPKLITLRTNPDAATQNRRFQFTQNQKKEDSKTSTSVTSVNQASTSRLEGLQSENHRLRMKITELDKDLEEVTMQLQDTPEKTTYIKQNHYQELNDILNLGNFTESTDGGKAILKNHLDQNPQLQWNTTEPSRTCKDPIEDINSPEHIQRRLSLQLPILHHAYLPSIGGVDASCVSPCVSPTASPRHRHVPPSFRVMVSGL", "assay": "GABAB receptor agonist or partial agonist activity by binding, electrophysiology, cAMP and/or Ca2+ assay methods (Examples 83-86)", "assay_type": "cell-based", "outline": "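Binding: rat cortex membranes in 50 mM Tris pH 7.4 with 100 μM isoguvacine were preincubated 10 min at RT with compound, then radiolabeled CGP54626 (1-10 nM) was added; filtered and scintillation-counted. cAMP: GABAB R1a2 HEK cells, 1 h RT with 100 μM forskolin, chemiluminescence.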", "values": [
      {"smiles": "Cl.N#Cc1ccccc1COc1cc([C@H](CN)CC(=O)O)ccc1Cl", "note": "[(3R)-4-amino-3-{4-chloro-3-[(2-cyanophenyl)methoxy]phenyl}butanoic acid hydrochloride]", "GABAB receptor agonist or partial agonist activity": "agonist or partial agonist activity"},
      {"smiles": "Cl.NC[C@H](CC(=O)O)c1cc(Br)c(Cl)c(-c2cccc(C(=O)O)c2)c1", "note": "[3-{5-[(1R)-2-amino-1-(carboxymethyl)ethyl]-3-bromo-2-chlorophenyl}benzoic acid hydrochloride]", "GABAB receptor agonist or partial agonist activity": "agonist or partial agonist activity"},
      {"smiles": "NC[C@H](CC(=O)O)c1ccc(Cl)c(NC(=O)c2ccc([N+](=O)[O-])cc2)c1", "note": "[(3R)-4-amino-3-{4-chloro-3-[(4-nitrophenyl)carbonylamino]phenyl}butanoic acid]", "GABAB receptor agonist or partial agonist activity": "agonist or partial agonist activity"},
      {"smiles": "Cl.NC[C@H](CC(=O)O)c1ccc(Cl)c(-c2ccc(O)c(Cl)c2)c1", "note": "[(3R)-4-amino-3-[4-chloro-3-(3-chloro-4-hydroxyphenyl)phenyl]butanoic acid hydrochloride]", "GABAB receptor agonist or partial agonist activity": "agonist or partial agonist activity"},
      {"smiles": "NC[C@H](CC(=O)O)c1ccc(Cl)c(Oc2cccc(C(=O)O)c2)c1", "note": "[Example 22, 3-{5-[(1R)-2-Amino-1-(carboxymethyl)ethyl]-2-chlorophenoxy}benzoic acid]", "GABAB receptor agonist or partial agonist activity": "agonist or partial agonist activity"},
      {"smiles": "Cc1cc(C(=O)Nc2cc([C@H](CN)CC(=O)O)ccc2Cl)n(C)n1", "note": "[(3R)-4-amino-3-{3-[(1,3-dimethylpyrazol-5-yl)carbonylamino]-4-chlorophenyl}butanoic acid]", "GABAB receptor agonist or partial agonist activity": "agonist or partial agonist activity"},
      {"smiles": "NC[C@H](CC(=O)O)c1ccc(Cl)c(NCCc2ccccc2)c1", "note": "[(3R)-4-amino-3-{4-chloro-3-[(2-phenylethyl)amino]phenyl}butanoic acid]", "GABAB receptor agonist or partial agonist activity": "agonist or partial agonist activity"},
      {"smiles": "Cl.N#Cc1cncc(-c2cc([C@H](CN)CC(=O)O)ccc2Cl)c1", "note": "[(3R)-4-amino-3-[4-chloro-3-(5-cyano(3-pyridyl))phenyl]butanoic acid hydrochloride]", "GABAB receptor agonist or partial agonist activity": "agonist or partial agonist activity"},
      {"smiles": "Cl.NC[C@H](CC(=O)O)c1ccc(Cl)c(-c2cccc(O)c2)c1", "note": "[Example 34, (3R)-4-Amino-3-[4-chloro-3-(3-hydroxyphenyl)phenyl]butanoic acid hydrochloride]", "GABAB receptor agonist or partial agonist activity": "agonist or partial agonist activity"},
      {"smiles": "Cl.NC[C@H](CC(=O)O)c1ccc(Cl)c(-c2cc(F)c(F)c(F)c2)c1", "note": "[(3R)-4-amino-3-[4-chloro-3-(3,4,5-trifluorophenyl)phenyl]butanoic acid hydrochloride]", "GABAB receptor agonist or partial agonist activity": "agonist or partial agonist activity"},
      {"smiles": "Cc1ccc(CNc2cc([C@H](CN)CC(=O)O)ccc2Cl)cc1.Cl", "note": "[(3R)-4-amino-3-(4-chloro-3-{[(4-methylphenyl)methyl]amino}phenyl)butanoic acid hydrochloride]", "GABAB receptor agonist or partial agonist activity": "agonist or partial agonist activity"},
      {"smiles": "Cl.NC[C@H](CC(=O)O)c1ccc(Cl)c(Cc2ccncc2)c1", "note": "[(3R)-4-amino-3-[4-chloro-3-(4-pyridylmethyl)phenyl]butanoic acid hydrochloride]", "GABAB receptor agonist or partial agonist activity": "agonist or partial agonist activity"},
      {"smiles": "CN(C)c1cccc(-c2cc([C@H](CN)CC(=O)O)ccc2Cl)n1.Cl", "note": "[(3R)-4-amino-3-{3-[6-(dimethylamino)(2-pyridyl)]-4-chlorophenyl}butanoic acid hydrochloride]", "GABAB receptor agonist or partial agonist activity": "agonist or partial agonist activity"},
      {"smiles": "Cl.NC[C@H](CC(=O)O)c1ccc(Cl)c(NCc2cccc(F)c2)c1", "note": "[(3R)-4-amino-3-(4-chloro-3-{[(3-fluorophenyl)methyl]amino}phenyl)butanoic acid hydrochloride]", "GABAB receptor agonist or partial agonist activity": "agonist or partial agonist activity"},
      {"smiles": "CN(Cc1ccccc1)c1cc([C@H](CN)CC(=O)O)ccc1Cl.Cl", "note": "[(3R)-4-amino-3-{4-chloro-3-[methylbenzylamino]phenyl}butanoic acid hydrochloride]", "GABAB receptor agonist or partial agonist activity": "agonist or partial agonist activity"},
      {"smiles": "Cl.NC[C@H](CC(=O)O)c1ccc(Cl)c(OCc2cccc(C(=O)O)c2)c1", "note": "[3-({5-[(1R)-2-amino-1-(carboxymethyl)ethyl]-2-chlorophenoxy}methyl)benzoic acid hydrochloride]", "GABAB receptor agonist or partial agonist activity": "agonist or partial agonist activity"}
    ]}
  ]
}
